Data reported in patent US8771733B2, “Pharmaceutical composition containing an anti-nucleating agent” (Merck Sharp & Dohme Corp., priority 2004, dated 2014).
Counter-ions that a name gives are not always drawn.

How the values were obtained:
[1] = In vitro dissolution studies with bulk drug and granules at 37° C.; assay type: physicochemical; details: dissolution times of 60 to 180 minutes
Experimental: The dissolution properties of tablets prepared in the manner described in Part A of Example 3 (i.e., tablets containing 100 mg of Compound A on a free phenol basis and 0, 5, 10 or 15 wt. % HPMC) were tested in the following manner: Two tablets containing 0, 5, 10, or 15 wt. % HPMC were added to a USP Type II dissolution vessel containing 500 mL of 0.01 N HCl (pH=2) as the dissolution medium (ambient temperature). After the tablets were allowed to sink to the bottom of the vessel, the medium was stirred at 100 rpm for 60 minutes and then at 150 rpm for up to an additional 120 minutes. Samples (5 mL) were removed from medium at 5, 10, 15, 20, 30, 60, 90 and 120 minutes and at the conclusion of the test (180 minutes). Each sample was diluted 1:1 with 50:50 (volume:volume) acetonitrile:water, and then analyzed via HPLC or W spectrophotometry to determine the concentration of Compound A in the solution. (Note: The HPLC and UV methods were determined to be equivalent; the choice of method for a particular test was based on such factors as equipment availability.)
In vitro dissolution studies similar to the study described above, but conducted with unformulated bulk Compound A K salt and formulated bulk in granules and conducted at 37° C.

[2] = Hygroscopicity (vapor sorption analysis); assay type: physicochemical
Experimental: Hygroscopicity data was obtained on a VTI Symmetrical Vapor Sorption Analyzer Model SGA-1. Data was collected at room temperature from 5-95% relative humidity and back, 5% relative humidity change per step. Equilibrium conditions were 0.01 weight percent change in 5 minutes with a maximum equilibration time of 180 minutes.

SMILES: Cc1nnc(C(=O)NC(C)(C)c2nc(C(=O)NCc3ccc(F)cc3)c(O)c(=O)n2C)o1 [Compound A K salt]
- enhancement in drug solubility in the presence of HPMC versus absence of HPMC [1]: 10 fold
- weight when equilibrated back down to 5% RH ([2]; 5% RH, after 95% RH): returned back to approximately its dry weight
- weight increase when equilibrated at 95% RH ([2]; 95% RH at 25° C.): 1.8%
- XRPD analysis of the material after the hygroscopicity experiment (phase) ([2]; after 5-95% RH and back): had not changed phases
